Values of other authors in PMC5733301, “Antitubercular Nitroimidazoles Revisited: Synthesis and Activity of the Authentic 3-Nitro Isomer of Pretomanid” (ACS Medicinal Chemistry Letters, 2017).

What was measured:
[1] = test system: M. tb having mutations in the nitroreductase Ddn; design: method as in PMID 19209889; settings: ref [22]; cited from earlier work
[2] = test system: M. tb having mutations in the nitroreductase Ddn; design: method as in PMID 19209889; settings: ref [22]; cited from earlier work; remark: listed apart in the source

In the case of O=[N+]([O-])c1cn2c(n1)O[C@H](COCc1ccc(OC(F)(F)F)cc1)C2 [compound 20], the “aerobic MIC99 against Ddn mutant M. tb” value [1] is listed as > 100 µM and the “anaerobic MIC90 against Ddn mutant M. tb” value [2] is listed as 62.5 to 125 µM.
